Common to all, as to assay type: cell-based
Assay [1] concerns SK-BR-3 (breast cancer, HER2+). The assay can be described thus: SRB colorimetric cytotoxicity assay, SK-BR-3. The note with it: Homo sapiens, SK-BR-3, 72 h. From the text: (§1) The aim of the assay was to evaluate the in vitro cytostatic (ability to delay or arrest tumor cell growth) or cytotoxic (ability to kill tumor cells) activity of the samples being tested.
(§2) The following human tumor cell lines were obtained from the American Type Culture Collection (ATCC): SK-BR-3 (ATCC HB-30), HCC-1954 (ATCC CRL-2338) (both being breast cancer, HER2+), MDA-MB-231 (ATCC HTB-26), MCF-7 (ATCC HTB-22) (both being breast cancer, HER2−).
(§3) For SK-BR-3, HCC-1954, MDA-MB-231 and MCF-7 cells, a colorimetric assay using Sulforhodamine B (SRB) was adapted for quantitative measurement of cell growth and cytotoxicity, as described by V. Vichai and K. Kirtikara. In “Sulforhodamine B colorimetric assay for cytotoxicity screening”, Nature Protocols, 2006, 1: 1112-1116. Briefly, cells were seeded in 96-well microtiter plates and allowed to stand for 24 hours in drug-free medium before treatment with vehicle alone or with the tested substances for 72 hours. For quantification, cells were washed twice with phosphate buffered saline (PBS), fixed for 15 min in 1% glutaraldehyde solution, rinsed twice with PBS, stained in 0.4% (w/v) SRB with 1% (v/v) acetic acid solution for 30 min, rinsed several times with 1% acetic acid solution and air-dried.
(§4) Cell survival was expressed in all cases as percentage of control, untreated cell survival. […]

Assay [2] concerns HCC-1954 (breast cancer, HER2+). The assay can be described thus: SRB colorimetric cytotoxicity assay, HCC-1954. As to conditions: Homo sapiens, HCC1954, 72 h.
Text: as §1, §2, §3, §4

The test system of assay [3] is MDA-MB-231 (breast cancer, HER2−). Put plainly: SRB colorimetric cytotoxicity assay, MDA-MB-231. The note with it: Homo sapiens, MDA-MB-231, 72 h.
Text: as §1, §2, §3, §4

Assay [4] concerns MCF-7 (breast cancer, HER2−). Put plainly: SRB colorimetric cytotoxicity assay, MCF-7. As to conditions: Homo sapiens, MCF7, 72 h.
Text: as §1, §2, §3, §4

Here are results for one molecule from patent US20230218774A1, “DRUG ANTIBODY CONJUGATES” (PHARMA MAR, S.A., priority 2019, published 2023).

Where “and” joins values, the source holds several entries; their conditions need not be identical. Equal values may be shown once.

As to `C=C1C[C@](OC)([C@H](O)C(=O)N[C@@H](OC)[C@@H]2C[C@@H](O)C(C)(C)[C@@H](C[C@@H](COC(=O)NCCCNC(=O)CCCCCN3C(=O)C=CC3=O)OC)O2)O[C@H](C)[C@@H]1C` (racemic) [DL-2], the IC50 (commonly the point on the concentration scale where inhibition reaches its midpoint) in assay [1] was 0.108 µg/mL and 138 nM; in assay [2] it was 0.076 µg/mL and 97.1 nM; in assay [3], 0.0652 µg/mL and 83.3 nM; in assay [4], 0.0759 µg/mL and 97 nM.
